Laboratory results as given in BindingDB's records for doi:10.1016/s0960-894x(01)00776-4 (Wyeth-Ayerst Research, 2002).
pIC50: −log10 of the molar value.

Assay: Inhibition of Src-transformed fibroblast cell proliferation

pIC50: 5.62
Structure (SMILES): COc1cc(Nc2c(C#N)cnc3cc(OC)c(OC)cc23)c(C)cc1Cl
